In article PMC10716780, “The multistep oxidation of cholesterol to pregnenolone by human cytochrome P450 11A1 is highly processive” (The Journal of Biological Chemistry, 2023):
Entries after “also recorded” stand apart in the source; their conditions may differ. Like-named read-outs stand apart in the source and are kept apart here. Values belong to the compound of their own block, whether it stands above or below them.

How the values were obtained:
[1] = molecular target: T1, human P450 11A1 (Homo sapiens, UniProt P05108); assay: Effect of Tween 20 and lipids on P450 11A1 catalytic activity (cholesterol to pregnenolone); settings: for effect on P450 11A1 catalytic activity: 50 μM cholesterol, 0.25 μM P450 11A1, lipids 30 μM phospholipid
T1 sequence (P05108 41-521 limits assumed): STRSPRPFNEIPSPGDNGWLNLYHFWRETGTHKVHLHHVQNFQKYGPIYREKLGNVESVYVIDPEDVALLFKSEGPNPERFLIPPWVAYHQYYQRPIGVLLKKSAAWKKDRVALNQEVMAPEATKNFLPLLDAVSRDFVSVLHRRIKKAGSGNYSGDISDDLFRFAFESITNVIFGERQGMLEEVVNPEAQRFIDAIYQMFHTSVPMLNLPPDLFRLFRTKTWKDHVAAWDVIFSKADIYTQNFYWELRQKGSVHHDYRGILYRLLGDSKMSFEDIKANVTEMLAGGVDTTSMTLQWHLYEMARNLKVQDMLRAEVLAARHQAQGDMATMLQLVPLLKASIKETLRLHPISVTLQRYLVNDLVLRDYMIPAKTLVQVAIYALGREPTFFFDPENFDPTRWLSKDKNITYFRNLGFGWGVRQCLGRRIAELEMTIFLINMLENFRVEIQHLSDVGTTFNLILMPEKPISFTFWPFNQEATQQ
T1 sequence (P00257 59-186 partner): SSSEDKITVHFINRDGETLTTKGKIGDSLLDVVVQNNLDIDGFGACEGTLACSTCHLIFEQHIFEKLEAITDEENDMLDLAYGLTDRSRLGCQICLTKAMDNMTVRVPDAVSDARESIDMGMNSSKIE
Procedure: The substrate cholesterol and its 22R-OH and 20R,22R-(OH)2 products were delivered in 2-hydroxypropyl-β-cyclodextrin (HPCD) ([36]) in assays, circumventing the need to use any detergents or organic solvents.
Reactions were run in triplicate and the conversion of cholesterol to pregnenolone was calculated and plotted (nmol pregnenolone formed min^−1 (nmol P450)^−1). (Note: These assays were done with P450 11A1 purified in the absence of Tween 20.). AdR, adrenodoxin reductase; Adx, adrenodoxin; P450, cytochrome P450.
Reactions were run in triplicate and the conversion of cholesterol to pregnenolone was calculated and plotted (nmol pregnenolone formed min^−1 (nmol P450)^−1). AdR, adrenodoxin reductase; Adx, adrenodoxin; P450, cytochrome P450.
Sterol dilutions were performed in HPCD to ensure that the HPCD composition was equal throughout all incubations (final 4.5% w/v). The reaction mixture was split between vials (425 μl in each), and reactions were preincubated (37 °C, 5 min) prior to initiation (75 μl) with an NADPH-generating system (0.5 mM NADP^+, 10 mM glucose 6-phosphate, and 2 μg ml^−1 glucose 6-phosphate dehydrogenase) ([61]). Reactions (5 min) were terminated by extraction into CH2Cl2 (2 ml) and transferred to an ice bath. After the experiment was complete, the quenched reactions were subjected to centrifugation (10^3g, 5 min, 23 °C) to separate layers, the organic (bottom) layer of each sample was removed (1.6 ml) to fresh glass vials, and the samples were brought to dryness under a stream of nitrogen.

[2] = molecular target: T2, human P450 11A1 (Homo sapiens, UniProt P05108); assay: Stopped-flow ketoconazole trap, koff and binding rate measurements
T2 construct: M A S T R S P R P F N E I P S P G D N; Met-Ala (N-terminal start residues in place of the transit peptide and Ile40) (N); made in house; host or cells: E. coli C41(DE3) with GroES/GroEL, vector pET23C(+)
T2 sequence (P05108 41-521 limits assumed): T1 sequence (P05108 41-521 limits assumed)
Procedure: Interaction of the azole nitrogen atom with the P450 heme produces a bathochromic (“type II”) spectral shift (to ∼430 nm)—an inverse effect of the binding of substrate.
Measurement of kon rate(s) was not performed because the sterols are delivered in a solution of HPCD, from which the dissociation rate is not known.
Determinations of koff rates were performed as previously described ([33]).

[3] = molecular target: T2, human P450 11A1; assay: Steady-state spectral (type I) binding titration, Kd determination; settings: up to 1 mM
Procedure: Ligand binding constants were determined from the low-to high-spin (hypsochromic) spectral transition that occurs at the P450 heme as substrate entering the active site replaces water as the sixth axial heme ligand. […] As a result, we subsequently measured koff values of the P450-sterol complexes, which were consistent with the low Kd values observed (see below). Binding titrations were repeated in the presence of Adx (1 M equivalent, Fig. 6), although no significant effect was observed, even when Adx was added in excess (10-fold with cholesterol as the substrate, data not shown).
Spectra were recorded using either an OLIS-Cary 14 or OLIS-Aminco DW2a instrument (On-Line Instrument Systems) in the split-beam mode. The OLIS-Cary 14 instrument was used in the P450 11A1 titrations with a 10-cm cell (Starna Cells, catalog no. 34-Q-100, volume 25 ml).
Kd values were determined by difference spectroscopy as previously reported ([33], [43]) but with some modifications. Briefly, a long-path quartz cuvette (10 cm, 25 ml) containing P450 11A1 (0.1 μM, in 100 mM potassium phosphate buffer (pH 7.4)) was prepared and a baseline was recorded in an OLIS-Cary 14 spectrophotometer. Where indicated, the redox partner Adx was added in equimolar concentration (0.1 μM) to P450. Sterol solutions (in 45% HPCD, w/v) were added to the cuvette, the contents of the cuvette were inverted to mix, and a spectrum was recorded (350–500 nm) after each addition. The total volume added to each cuvette was kept ≤2% (v/v, 0.25 ml) in the assay. The maximum absorbance difference (usually ΔA390−A418) was plotted against the total sterol concentration, and the data were fit to a quadratic equation in GraphPad Prism software (GraphPad, https://www.graphpad.com) to estimate the dissociation constant (Kd). A quadratic equation was used to correct the ligand concentration for the enzyme-bound concentration (used as Y=B+A/2∗1/E∗((Kd+E+X)−(Kd+E+X)^2−(4∗E∗X)) (or Y = B + (A/2)∗(1/E)∗((Kd + E + X)-sqrt((Kd + E + X)∧2 -(4∗E∗X)) in Prism software), where E = enzyme concentration, Kd = dissociation constant, and X = […]).

[4] = molecular target: T3, P450 11A1 (CYP11A1) (Homo sapiens, UniProt P05108); assay: Kinetic isotope effect assay, disappearance of d0- and d3-cholesterol under single-turnover conditions; type: biochemical; settings: human, pH 7.4; 5 μM P450, 5 μM sterol, low Adx single-turnover; read-out: sterol half-life (t1/2) (converted)
T3 construct: M A S T R S P R P F N E I P S P G D N; Met-Ala (N-terminal start residues in place of the transit peptide and Ile40) (N); made in house; host or cells: E. coli (P450 11A1 in C41(DE3); Adx and AdR in E. coli)
T3 sequence (P05108 41-521 limits assumed): T1 sequence (P05108 41-521 limits assumed)
T3 sequence (P00257 59-186 partner): T1 sequence (P00257 59-186 partner)
Procedure: (§1) P450 11A1 incubations were performed under (low Adx) single-turnover conditions (5 μM P450, 5 μM cholesterol; see Experimental procedures) with d0- (authentic, unlabeled) and d3-cholesterol, and the disappearance of each was monitored by LC-atmospheric pressure chemical ionization-MS (m/z 369.3516 and 372.3705, respectively). In theory, if C-H bond breaking were rate-limiting in the initial hydroxylation then the rate of d3-cholesterol consumption would be slower relative to the d0 compound due to the increased strength of a C-D bond.
The kinetic isotope experiment was designed similarly to the benchtop experiment described above, but with some modifications. P450 11A1 (5 μM) was reconstituted with the redox partners AdR (10 μM) and Adx (5 μM) on ice (10 min) prior to dilution in potassium Hepes (50 mM, pH 7.4) and H2O and addition of d3-cholesterol substrate (5 μM). […]
Samples (held at 4 °C) were injected (10 μl) using a Waters Acquity UPLC system on a Acquity BEH octadecylsilane (C18) 2.1 mm × 50 mm (1.7 μm) UPLC column (held at 25 °C) with a flow rate of 0.5 ml min^−1 using an isocratic mobile phase of CH3CN (only). The column eluate was subjected to atmospheric pressure chemical ionization and analyzed using a Thermo Fisher Scientific LTQ XL Orbitrap mass spectrometer instrument operating in positive mode, scanning from m/z 100 to 500, with a resolution setting of 120,000. […]

[5] = molecular target: T1, human P450 11A1; assay: as above; type: biochemical; set-up: M A S T R S P R P F N E I P S P G D N; Met-Ala (N-terminal start residues in place of the transit peptide and Ile40) (N); made in house; host or cells: E. coli (P450 11A1 in C41(DE3); Adx and AdR in E. coli); settings: for kinetic isotope effect: C-22 hydroxylation, single-turnover
Procedure: as §1
The kinetic isotope experiment was designed similarly to the benchtop experiment described above, but with some modifications. P450 11A1 (5 μM) was reconstituted with the redox partners AdR (10 μM) and Adx (5 μM) on ice (10 min) prior to dilution in potassium Hepes (50 mM, pH 7.4) and H2O and addition of d3-cholesterol substrate (5 μM). The mixture was preincubated (5 min) prior to initiation with NADPH (2.5 mM, from 25 mM in potassium Hepes (50 mM, pH 7.4)) thus bringing all components to their desired final concentrations. After completing the desired incubation time, an aliquot (500 μl) was removed from the incubation and added to vials containing CH2Cl2 (5 ml) and the vials were mixed with a vortex device and placed on ice. The quenched reactions were centrifuged (10^3g, 5 min, 23 °C) to separate layers, and the organic (bottom) layers were removed (4 ml) and transferred to fresh glass vials. The extraction process was repeated and the two extracts (2 × 4 ml) from each sample were combined to maximize product recovery. Samples (8 ml) were brought to dryness under a stream of nitrogen, and the dried residues were dissolved in CH3OH (25 μl) and transferred to autosampler vials for analysis.
Samples (held at 4 °C) were injected (10 μl) using a Waters Acquity UPLC system on a Acquity BEH octadecylsilane (C18) 2.1 mm × 50 mm (1.7 μm) UPLC column (held at 25 °C) with a flow rate of 0.5 ml min^−1 using an isocratic mobile phase of CH3CN (only). The column eluate was subjected to atmospheric pressure chemical ionization and analyzed using a Thermo Fisher Scientific LTQ XL Orbitrap mass spectrometer instrument operating in positive mode, scanning from m/z 100 to 500, with a resolution setting of 120,000. Data were processed using Xcalibur QualBrowser (Thermo Fisher Scientific) software (version 2.0.7; https://www.thermofishcer.com/order/catalog/product/OPTON).

Compound: Tween 20
- concentrations found inhibitory ([1]; 0.25 μM P450 11A1, 50 μM cholesterol, 40-fold Adx): > 0.008 % (w/v)
- effect on P450 11A1 catalytic activity [1]: inhibitory; also recorded: inhibited; also recorded: strongly inhibitory; also recorded: inhibits the enzyme

Compound: CCCCCCCCCCCC(=O)OC[C@H](COP(=O)([O-])OCC[N+](C)(C)C)OC(=O)CCCCCCCCCCC [L-α-dilauroyl-sn-glycero-3-phosphocholine]
- effect on P450 11A1 catalytic activity [1]: not enhanced

Compound: CCCCCCCC/C=C\CCCCCCCC(=O)OC[C@H](COP(=O)([O-])OCC[N+](C)(C)C)OC(=O)CCCCCCC/C=C\CCCCCCCC [L-α-dioleyl-sn-glycero-3-phosphocholine]
- effect on P450 11A1 catalytic activity [1]: not enhanced

More lines, now with the values ahead:

- observed rate of ketoconazole binding (ΔA430) ([2]; 20 μM ketoconazole mixed with 2 μM P450 11A1, equal volumes, 23 °C): 5.3 s⁻¹
- kon ([2]; read-out: fast phase of biexponential fit (ketoconazole kon), cholesterol data, trap experiment with P450-cholesterol complex): 710000 M⁻¹ s⁻¹
- kon ([2]; read-out: fast phase of biexponential fit (ketoconazole kon), pregnenolone data, trap experiment with P450-pregnenolone complex): 790000 M⁻¹ s⁻¹
- kon ([2]; read-out: rate of ketoconazole binding to unliganded P450 11A1 (kon), stopped-flow, unliganded enzyme): ≥ 500000 M⁻¹ s⁻¹
Compound: CC(=O)N1CCN(c2ccc(OCC3COC(Cn4ccnc4)(c4ccc(Cl)cc4Cl)O3)cc2)CC1 (centres unmarked) [ketoconazole, reference compound]

- effect on P450 11A1 catalytic activity [1]: inhibit
Compound: cardiolipin

- spectral shift with P450 11A1 [3]: did not induce a spectral shift
Compound: CC(C)CCC=O [4-methylpentanal]

- half-life at 5 μM [4]: 22 s
- rate of disappearance ([5]; 5 μM P450, 5 μM sterol, exponential decay fit): 0.032 s⁻¹
- kinetic isotope effect [5]: did not observe a kinetic isotope effect
- kinetic isotope effect ([5]; listed as d3-Cholesterol): no kinetic deuterium isotope effect
Compound: [2H]C([2H])(CCC(C)C)[C@@]([2H])(C)[C@H]1CC[C@H]2[C@@H]3CC=C4C[C@@H](O)CC[C@]4(C)[C@H]3CC[C@@]21C [d3-cholesterol, (20R)-Cholest-5-ene-20,22,22-d3-3β-ol]
